# Measurements taken from the supplement of paper PMC10307832.
# Columns and labels:
# Experiment in all cases: relative viability (nuclei count vs DMSO), 5 days (fraction); higher = more cells survive
# [1] = compound: CN(C)C/C=C/C(=O)Nc1cc2c(Nc3ccc(F)c(Cl)c3)ncnc2cc1O[C@H]1CCOC1 [Afatinib] + CS(=O)(=O)N1CCN(Cc2cc3nc(-c4cccc5[nH]ncc45)nc(N4CCOCC4)c3s2)CC1 [Pictilisib] (partner 1 µM)
# In short: (§1)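 Lung cancer cell lines were seeded in 1536-well plates and dosed by pin tool the next day, with either a single drug or a fixed anchor-drug dose combined with five library-drug doses (not always all listed) spaced in √10 steps. Five days later, one step fixed the cells and stained their nuclei (final 0.05% Triton X-100, 1% formaldehyde, 1 ug/ml Hoechst), and nuclei were counted on 4× images. Relative viability is the nuclei count in treated wells divided by the count in vehicle wells, and each value is the median of duplicate plates.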
# [2] = compound: CN(C)C/C=C/C(=O)Nc1cc2c(Nc3ccc(F)c(Cl)c3)ncnc2cc1O[C@H]1CCOC1 [Afatinib] + C[C@]1(O)C[C@@H](c2nc(-c3ccc4ccc(-c5ccccc5)nc4c3)c3c(N)nccn32)C1 [Linsitinib] (partner 1 µM)
# In short: as §1
# [3] = compound: CN(C)C/C=C/C(=O)Nc1cc2c(Nc3ccc(F)c(Cl)c3)ncnc2cc1O[C@H]1CCOC1 [Afatinib] + Cc1nc(NC(=O)N2CCC[C@H]2C(N)=O)sc1-c1ccnc(C(C)(C)C(F)(F)F)c1 [Alpelisib] (partner 2 µM)
# In short: as §1
# [4] = compound: CN(C)C/C=C/C(=O)Nc1cc2c(Nc3ccc(F)c(Cl)c3)ncnc2cc1O[C@H]1CCOC1 [Afatinib] + Nc1ncn([C@H]2C[C@H](O)[C@@H](CO)O2)c(=O)n1 [Decitabine] (partner 2 µM)
# In short: as §1
Cell Line,relative viability ([1]; first compound 0.005 µM),relative viability ([1]; first compound 0.01581 µM),relative viability ([1]; first compound 0.05 µM),relative viability ([1]; first compound 0.1581 µM),relative viability ([1]; first compound 0.5 µM),relative viability ([2]; first compound 0.005 µM),relative viability ([2]; first compound 0.01581 µM),relative viability ([2]; first compound 0.05 µM),relative viability ([2]; first compound 0.1581 µM),relative viability ([2]; first compound 0.5 µM),relative viability ([3]; first compound 0.005 µM),relative viability ([3]; first compound 0.01581 µM),relative viability ([3]; first compound 0.05 µM),relative viability ([3]; first compound 0.1581 µM),relative viability ([3]; first compound 0.5 µM),relative viability ([4]; first compound 0.005 µM),relative viability ([4]; first compound 0.01581 µM),relative viability ([4]; first compound 0.05 µM),relative viability ([4]; first compound 0.1581 µM),relative viability ([4]; first compound 0.5 µM)
NCI-H3122,0.558,0.628,0.663,0.557,0.621,1.02,1.02,0.963,0.822,1.08,0.81,0.685,0.716,0.738,0.705,0.38,0.439,0.424,0.433,0.418
NCI-H1651,0.58,0.533,0.546,0.553,0.449,1.12,0.983,0.847,0.906,0.815,1.02,0.881,0.906,0.953,0.849,0.558,0.57,0.6,0.576,0.585
NCI-H838,0.441,0.462,0.453,0.497,0.524,1.04,0.949,1.07,0.952,1.06,0.93,1.1,1.06,0.905,1.1,0.496,0.445,0.481,0.451,0.461
NCI-H596,0.35,0.394,0.4,0.384,0.415,1.06,1.16,1.1,1.02,0.888,0.542,0.512,0.528,0.385,0.538,1.02,0.962,1.08,1.1,1.01
